Data on two compounds can be found in patent publication US6432953B1, “Polymorphic form of a tachykinin receptor antagonist” (Merck & Co., Inc., priority 1997, dated 2002).

Each structure is given as a SMILES string. Converted amounts (≈) assume the structure as drawn.

The nature of series [1]: Solubility in methanol/water. The series is classed as physicochemical. The following applies: for solubility: 2/1 (v/v) methanol/water, 0 °C, organic solvent or mixture, thermodynamic from solid. Here is the method:
The solubility of Form I in 2/1 (v/v) methanol/water at 0° C. was determined to be 0.9±0.1 mg/ml. The solubility of Form II in 2/1 (v/v) methanol/water at 0C was determined to be 1.3±0.2 mg/ml.

The nature of another series: Hygroscopicity. In kind it is physicochemical.
A short description of the next series: Thermal stability. In kind it is physicochemical.
Series [2] in a line: Vapor pressure by Knudsen effusion techniques. The series is classed as physicochemical. The following applies: at elevated temperatures, Form I compared with Form II. An excerpt:
The vapor pressures of Form I and Form II at elevated temperatures were similar when examined with Knudsen effusion techniques.

For the next series, the system named is cisplatin-induced emesis. Kind of series: Ferret model of cisplatin-induced emesis. Conditions: model of Tattersall et al. In kind it is in vivo.

For the compound `CC(OC1OCCN(Cc2n[nH]c(=O)[nH]2)[C@H]1c1ccc(F)cc1)c1cc(C(F)(F)F)cc(C(F)(F)F)c1` (stereo partly drawn) [Form II], the solubility in series [1] (2/1 (v/v) methanol/water at 0C) came to 1300 ± 200 µg/mL (≈ 2430 µM).
Regarding `CC(OC1OCCN(Cc2n[nH]c(=O)[nH]2)[C@H]1c1ccc(F)cc1)c1cc(C(F)(F)F)cc(C(F)(F)F)c1` (stereo partly drawn) [Form I], the “ratio of the solubilities” value in series [1] was found to be 1.4. Further, the solubility in series [1] (2/1 (v/v) methanol/water at 0° C.) is 900 ± 100 µg/mL (≈ 1680 µM). For the same compound, the “more stable than Form II by” value in series [1] (thermodynamic stability difference between polymorphs, from solubility ratio) stood at 0.2 kcal/mol. Besides, in “Hygroscopicity”, the hygroscopicity entry was “non-hygroscopic”. The thermal stability result in the series “Thermal stability” (as a neat solid) and in the series “Thermal stability” (in hydroalcoholic solution) was “high degree of thermal stability” in each case. In addition, the vapor pressures entry in series [2] is given as “similar”. In the series with cisplatin-induced emesis, the “retching and vomiting induced by cisplatin” value was “attenuate the retching and vomiting induced by cisplatin”.
